Values quoted from earlier work in article PMC11944884, “Bioactive Secondary Metabolites of Two Chinese Edible Boletes, Phlebopus portentosus and Butyriboletus roseoflavus” (Molecules, 2025).

Test system: head domain of HA
Conditions: molecular docking, ref [56]; cited from earlier work

## CC[C@H](CC[C@@H](C)[C@H]1CC[C@H]2[C@@H]3CC=C4C[C@@H](O)CC[C@]4(C)[C@H]3CC[C@]12C)C(C)C [β-sitosterol]
  binding affinity to the head domain of HA: highest binding affinity
